Data on seven compounds can be found in the supplement of paper PMC4862054.

Holding throughout (details): incubation time: 72 h
Assay [1] has as its system CAL-148. Put plainly: normalised viability (% of control), CellTiter-Blue; higher = more viable cells (about 100 = DMSO control). As for the experimental part: (§1)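 DSRT, CellTiter-Blue viability, 72 h incubation. Signal is normalised to DMSO and benzethonium chloride controls. Value is the normalised response at dose 6.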
The test system of assay [2] is CAL-51. The description is as above. As for the experimental part: as §1
The subject of assay [3] is CAL-85-1. The description is as above. As for the experimental part: as §1
The test system of assay [4] is DU-4475. The description is as above. As for the experimental part:
as §1

The test system of assay [5] is HDQ-P1. Described as above. As for the experimental part: as §1
The test system of assay [6] is MDA-MB-453. Described as above. As for the experimental part: as §1
Assay [7] concerns BT-474. The assay is described as follows: normalised response (% of control), CellTox Green; higher = less cell death (100 = DMSO, 0 = benzethonium chloride kill control). The procedure, abridged: (§2)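 For each plate, 0.1 % DMSO was set to 100 and a positive kill control to 0. Breast cancer cell lines (20 µl suspension) were seeded into 384-well plates already holding compound at 5 concentrations in 10-fold steps over a 10,000-fold range chosen per compound, and incubated for 72 h. CellTox Green fluorescence at 485/520 nm was read before CellTiter-Glo luminescence, which followed 10 min at room temperature. Each value is the normalised signal at one concentration.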

For assay [8], the system named is BT-549. Described as above. The procedure, abridged: as §2
For assay [9], the system named is CAL-120. Described as above. The procedure, abridged:
as §2

Assay [10] deals with CAL-148. The assay is described as above. The procedure, abridged: as §2
The test system of assay [11] is CAL-51. The assay is described as above. The procedure, abridged: as §2
Assay [12] concerns CAL-85-1. Described as above. The procedure, abridged: as §2
Assay [13] deals with DU-4475. Described as above. The procedure, abridged:
as §2

Assay [14] relates to HCC1143. The assay is described as above. The procedure, abridged: as §2
Assay [15] has as its system HCC1599. Described as above. A digest of the protocol: as §2
Assay [16] relates to HCC1937. The assay is described as above. The procedure, abridged: as §2
The subject of assay [17] is HDQ-P1. The assay is described as above. The procedure, abridged: as §2
In assay [18] the test system is Hs578T. Described as above. The procedure, abridged: as §2
In assay [19] the test system is MCF-10A. The description is as above. The procedure, abridged: as §2
Assay [20] deals with MDA-MB-231. The description is as above. The procedure, abridged:
as §2

Assay [21] relates to MDA-MB-436. The assay is described as above. A digest of the protocol:
as §2

The subject of assay [22] is MDA-MB-453. Described as above. A digest of the protocol: as §2
The test system of assay [23] is MDA-MB-468. The description is as above. The procedure, abridged:
as §2

Assay [24] has as its system MFM-223. The assay is described as above. The procedure, abridged:
as §2

Assay [25] has as its system BT-474. Put plainly: normalised response (% of control), CellTiter-Glo; higher = more viable cells (100 = DMSO, 0 = benzethonium chloride kill control). As for the experimental part:
(§3)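 DSRT, 72 h incubation, CellTox Green / CellTiter-Glo readout. Signal is normalised to DMSO and benzethonium chloride controls. Value is the normalised response at the highest dose.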
For orientation: In ATP-based viability assays light output follows the ATP content of the culture.

Assay [26] relates to BT-549. The description is as above. As for the experimental part: as §3
Assay [27] concerns CAL-120. The assay is described as above. As for the experimental part: as §3
Assay [28] concerns CAL-148. Described as above. As for the experimental part: as §3
Assay [29] concerns CAL-51. Described as above. As for the experimental part:
as §3

Assay [30] has as its system CAL-85-1. The assay is described as above. As for the experimental part:
as §3

The subject of assay [31] is DU-4475. The assay is described as above. As for the experimental part:
as §3

The test system of assay [32] is HCC1143. The assay is described as above. As for the experimental part: as §3
The test system of assay [33] is HCC1599. The assay is described as above. As for the experimental part: as §3
Assay [34] relates to HCC1937. The assay is described as above. As for the experimental part:
as §3

Assay [35] concerns HDQ-P1. The description is as above. As for the experimental part: as §3
The test system of assay [36] is Hs578T. Described as above. As for the experimental part:
as §3

Assay [37] has as its system MCF-10A. The description is as above. As for the experimental part: as §3
Assay [38] concerns MDA-MB-231. The description is as above. As for the experimental part:
as §3

Assay [39] has as its system MDA-MB-436. The assay is described as above. As for the experimental part: as §3
Assay [40] relates to MDA-MB-453. The description is as above. As for the experimental part:
as §3

Assay [41] concerns MDA-MB-468. The description is as above. As for the experimental part:
as §3

Assay [42] has as its system MFM-223. Described as above. As for the experimental part: as §3
A further assay deals with SK-BR-3. The assay is described as above. As for the experimental part: as §3

On to `CCC1=C[C@@H]2CN(C1)Cc1c([nH]c3ccccc13)[C@@](C(=O)OC)(c1cc3c(cc1OC)N(C)[C@H]1[C@@](O)(C(=O)OC)[C@H](OC(C)=O)[C@]4(CC)C=CCN5CC[C@]31[C@@H]54)C2` [Vinorelbine] (300 nM), for which the normalised viability in the assay with CAL-148 [1] is 24.5%; in the assay on CAL-51 [2], 35%; with CAL-85-1 [3], 31.4%; in the assay with DU-4475 [4] it was 53.9%; in the assay on HDQ-P1 [5], 40.5%; in the assay on MDA-MB-453 [6] it was 25.2%.
On to `CN[C@@H]1C[C@H]2O[C@@](C)([C@@H]1OC)n1c3ccccc3c3c4c(c5c6ccccc6n2c5c31)C(=O)N[C@H]4O` [UCN-01] (300 nM), for which the normalised viability in the assay on CAL-148 [1] stood at 87%; with CAL-51 [2], 31.2%; in the assay on CAL-85-1 [3] it was 41.8%; in the assay on DU-4475 [4], 37.6%; with HDQ-P1 [5], 26.2%; in the assay on MDA-MB-453 [6], 38.4%.
With `O=C1CCC(N2C(=O)c3ccccc3C2=O)C(=O)N1` (stereo not drawn) [Thalidomide] (300 nM), the normalised viability with CAL-148 [1] turned out to be 117%; in the assay on CAL-51 [2] it was 88.4%; with CAL-85-1 [3], 105%; in the assay on DU-4475 [4], 99.6%; in the assay on HDQ-P1 [5], 80.2%; with MDA-MB-453 [6] it was 103%.
With `Cn1c(Nc2ccc(C(F)(F)F)cc2)nc2cc(Oc3ccnc(-c4ncc(C(F)(F)F)[nH]4)c3)ccc21` [RAF265] (30 nM), the normalised viability with CAL-148 [1] was found to be 86.2%; in the assay on CAL-51 [2], 89.8%; with CAL-85-1 [3], 88.9%; in the assay on DU-4475 [4] it was 111%; in the assay on HDQ-P1 [5] it was 51.7%; in the assay with MDA-MB-453 [6] it was 88.3%.
Turning to `C[C@]12CC[C@@H]3c4ccc(O)cc4C[C@@H](CCCCCCCCC[S+]([O-])CCCC(F)(F)C(F)(F)F)[C@H]3[C@@H]1CC[C@@H]2O` (stereo partly drawn) [Fulvestrant] (300 nM), the normalised viability stood at 102% in the assay on CAL-148 [1]; 111% with CAL-51 [2]; 87.8% in the assay with CAL-85-1 [3]; 92.7% in the assay with DU-4475 [4]; 74.7% in the assay on HDQ-P1 [5]; 98.8% in the assay with MDA-MB-453 [6].
With `CN(N=O)C(=O)N[C@@H](C=O)[C@@H](O)[C@H](O)[C@H](O)CO` [Streptozocin] (300 nM), the normalised viability came out at 107% in the assay with CAL-148 [1]; 108% in the assay with CAL-51 [2]; 106% in the assay on CAL-85-1 [3]; 97.2% in the assay on DU-4475 [4]; 85.4% in the assay with HDQ-P1 [5]; 102% in the assay with MDA-MB-453 [6].
As for `CCCCCCCCCCCCCCCCCCOP(=O)([O-])OC1CC[N+](C)(C)CC1` [Perifosine] (2500 nM), the normalised response turned out to be 95.6% in the assay with BT-474 [7]; 56.7% with BT-549 [8]; 107% in the assay on CAL-120 [9]; 96.9% in the assay on CAL-148 [10]; 96.4% in the assay on CAL-51 [11]; 97.4% in the assay with CAL-85-1 [12]. Moreover, the normalised response with DU-4475 [13] came out at 95.7%; in the assay on HCC1143 [14], 67%; in the assay with HCC1599 [15], 99.3%; with HCC1937 [16], 108%; in the assay with HDQ-P1 [17], 109%; in the assay on Hs578T [18], 128%. For the same compound, the normalised response was found to be 117% in the assay on MCF-10A [19]; 106% in the assay with MDA-MB-231 [20]; 78% with MDA-MB-436 [21]; 83.9% in the assay with MDA-MB-453 [22]; 133% in the assay on MDA-MB-468 [23]; 90.3% with MFM-223 [24]. The normalised response worked out at 104% in the assay on BT-474 [25]; 111% with BT-549 [26]; 104% in the assay on CAL-120 [27]; 79.9% with CAL-148 [28]; 80.7% in the assay with CAL-51 [29]; 102% with CAL-85-1 [30]. Moreover, the normalised response in the assay with DU-4475 [31] is 95.9%; with HCC1143 [32] it was 99.1%; with HCC1599 [33], 86.3%; with HCC1937 [34], 52.7%; with HDQ-P1 [35], 84.7%; with Hs578T [36], 96.9%. Besides, the normalised response in the assay on MCF-10A [37] came out at 63.7%; in the assay on MDA-MB-231 [38], 104%; in the assay with MDA-MB-436 [39], 87.9%; with MDA-MB-453 [40] it was 98.6%; with MDA-MB-468 [41], 97.5%; with MFM-223 [42], 92.6%. The compound further came in with a normalised response in the assay on SK-BR-3 of 60.4%.
